Results taken from ChEMBL document CHEMBL1139560, “Synthesis of linked berberine dimers and their remarkably enhanced DNA-binding affinities” (Bioorg Med Chem Lett, 2005).

Columns and labels:
Type in all cases: nucleic-acid assay
Nucleic Acid [1] = assay: In vitro relative affinity for binding to d(TA AGAATTCTTA)2
Nucleic Acid [2] = assay: In vitro association constant for binding at d(AAGAATTCTT)2 done in 50 mM Tris-HCL in pH 6.35 at room temperature
Nucleic Acid [3] = assay: In vitro association constant for binding at d(TA AGAATTCTTA)2 done in 50 mM Tris-HCL in pH 6.35 at room temperature
Nucleic Acid [4] = assay: In vitro relative affinity for binding to d(AAGAATTCTT)2

Row | Structure (SMILES) | RA (Nucleic Acid [1]) | Ka (Nucleic Acid [2]) | Ka (Nucleic Acid [3]) | RA (Nucleic Acid [4])
1 | COc1ccc2cc3[n+](cc2c1OC)CCc1cc2c(cc1-3)OCO2 | 1 | 12400 | 29300 | 1
2 | COc1ccc2cc3[n+](cc2c1OCCCOc1c(OC)ccc2cc4[n+](cc12)CCc1cc2c(cc1-4)OCO2)CCc1cc2c(cc1-3)OCO2 | 94.2 | 246000 | 2.76e+06 | 19.8
3 | COc1ccc2cc3[n+](cc2c1OCCCCOc1c(OC)ccc2cc4[n+](cc12)CCc1cc2c(cc1-4)OCO2)CCc1cc2c(cc1-3)OCO2 | 11.9 | 87800 | 349000 | 7.1

Now from value to compound:

Row | RA (Nucleic Acid [1]) | Ka (Nucleic Acid [2]) | Ka (Nucleic Acid [3]) | RA (Nucleic Acid [4]) | Structure (SMILES)
4 | 8.5 | 34200 | 248000 | 2.8 | COc1ccc2cc3[n+](cc2c1OCCCCCCOc1c(OC)ccc2cc4[n+](cc12)CCc1cc2c(cc1-4)OCO2)CCc1cc2c(cc1-3)OCO2
5 | 11 | 57700 | 321000 | 4.7 | COc1ccc2cc3[n+](cc2c1OCCCCCOc1c(OC)ccc2cc4[n+](cc12)CCc1cc2c(cc1-4)OCO2)CCc1cc2c(cc1-3)OCO2
